Source: patent US4145554A, “3-Nitropyrazole derivatives” (Eli Lilly and Company, priority 1977, dated 1979)
Values after ≈ are worked out from the molar mass of the structure shown.

Experiments:
Salmonella sp. = assay: in vitro tube dilution test (MIC); format: cell-based
Text: (§1) Our compound, 1-(2-hydroxyethyl)-3-nitro-4-pyrazolecarboxamide, has been extensively tested in vitro to determine the range of microorganisms against which it is active. The table of data below reports the minimum inhibitory concentration (MIC) at which the compound is effective in controlling a variety of microorganisms in a standard tube dilution test system. The MIC is reported as micrograms of compound per milliliter.

[1] = system: Arizona hinshaw (paracolon); assay: in vitro tube dilution test (MIC); format: cell-based
Mycoplasma hyorhinis = assay: in vitro tube dilution test (MIC); format: cell-based
Text: as §1
(§2) The other preferred compounds of our invention have also been thoroughly tested in the in vitro tube dilution test.

Pseudomonas sp. = assay: in vitro tube dilution test (MIC); format: cell-based
Text: as §1, §2

[2] = system: Salmonella heidelburg 1593; assay: in vitro tube dilution test (MIC); format: cell-based; details: Salmonella heidelburg 1593 (turkey pancreas), tube dilution
Text: as §1, §2

Salmonella pullorum Ill. = assay: in vitro tube dilution test (MIC); format: cell-based; details: Salmonella enterica
Text: as §1, §2

[3] = system: Salmonella typhimurium 1335; assay: in vitro tube dilution test (MIC); format: cell-based; details: Salmonella enterica; Salmonella typhimurium 1335 (turkey intestine), tube dilution
Text: as §1, §2

Mycoplasma hyosynoviae = assay: in vitro tube dilution test (MIC); format: cell-based
[4] = system: Bordetella bronchiseptica; assay: in vitro tube dilution test (MIC); format: cell-based
Hemophilus gallinarum = assay: in vitro tube dilution test (MIC); format: cell-based
Hemophilus somnus = assay: in vitro tube dilution test (MIC); format: cell-based
[5] = system: Salmonella typhimurium 1503; assay: in vitro tube dilution test (MIC); format: cell-based; details: Salmonella enterica, Salmonella typhimurium 1503 (poult intestine)
Salmonella pullorum 9-25 = assay: in vitro tube dilution test (MIC); format: cell-based; details: Salmonella enterica; Salmonella pullorum 9-25, tube dilution
[6] = system: Enterobacter cloacae and aerogenes; assay: agar dilution technique (MIC); format: cell-based
Hemophilus influenzae = assay: agar dilution technique (MIC); format: cell-based; details: Haemophilus influenzae
Streptococcus pyogenes [7] = assay: agar dilution technique (MIC); format: cell-based
Alkaligenes fecalis = assay: agar dilution technique (MIC); format: cell-based
Streptococcus pyogenes [8] = assay: Tests in mice, Streptococcus pyogenes infection; format: in vivo; details: S. pyogenes
Method: Groups of laboratory mice were inoculatd with E. coli or with Streptococcus pyogenes. The 3-nitropyrazoles were administered in two different modes to the infected mice. In one group of tests, the compound was administered in two subcutaneous doses of 83 mg./kg. each, given 1 and 5 hours after the mice were inoculated with the organism. The mice were observed, and the results reported below as the number of days the treated mice survived the challenge.
In the other group of tests, the dose of each compound which allowed 50 percent of the treated mice to survive the challenge was determined. Again, the compound was administered in subcutane divided doses, 1 and 5 hours post-inoculation.

[9] = system: naturally-occurring pneumoenteritis complex infection (pasteurella species, E. coli and salmonellae); assay: Pneumoenteritis complex disease in calves, first test; format: in vivo; details: for Mortality / Avg. Wt. Gain: milk replacer, 56 days; for Avg. Wt. Gain: survivors
Method: Our compound, 1-(2-hydroxyethyl)-3-nitro-4-pyrazolecarboxamide, was evaluated in the control of a naturally-occurring pneumoenteritis complex infection of calves. […] A group of 24 calves was allocated randomly into three treatment groups. The average weights of the treatment groups were nearly identical at the start of the experiment. The calves were housed in quarters which were kept as clean as typical calf quarters, but in which calves suffering from pneumoenteritis complex had previously been housed. […] One group was a control group, and was fed on a typical milk replacer diet. The other two groups received 200 mg. and 400 mg. per day respectively of the 3-nitro-pyrazole compound, mixed in their milk replacer diets.
The calves were carefully observed daily to detect signs of illness as quickly as such signs appeared. The calves were weighed at weekly intervals. Various organs were removed from the calves which died during the experiment, and cultures were prepared from the organs to identify microorganisms. At the end of the 56-day experiment, cultures were prepared from nasal and rectal swabs of the surviving calves, and microorganisms in the cultures were identified.

[10] = system: naturally-occurring pneumoenteritis complex infection (pasteurella species, E. coli and salmonellae); assay: Pneumoenteritis complex disease in calves, second test; format: in vivo
Method: The test reported below was conducted in general identically with the test above. All of the calves used in the test were approximately 3 days old when the test began, and the test ran for 56 days.
The treated group received 200 mg./day/calf (about 3-5 mg./kg./day) of 1-(2-hydroxyethyl)-3-nitro-4-pyrazolecarboxamide, which was administered in the calves' milk replacer diet.
The table below reports the average weight gain of the surviving animals and the mortality of the calves in each group.

[11] = Growth promotion in swine; format: in vivo; details: 300 gm./ton; 28 days
Text: The same 3-nitropyrazole tested above was used in a growth promotion test in swine. The pigs weighed 25-30 lbs. when the test began, and were housed and fed according to good commercial practice for 28 days. The pigs in the treated group received feed containing 300 gm. per ton of the 3-nitropyrazole compound.

[12] = 200 mg./day/calf (3-5 mg./kg./day)
[13] = 400 mg./day/calf (6-10 mg./kg./day)

## NC(=O)c1cn(CCO)nc1[N+](=O)[O-] [Compound 32, 1-(2-hydroxyethyl)-3-nitro-4-pyrazolecarboxamide]
Salmonella sp.
  MIC: 3.12 µg/mL (≈ 15.6 µM)
[1]
  MIC: 6.25 µg/mL (≈ 31.2 µM)
Mycoplasma hyorhinis
  MIC: 50 µg/mL (≈ 250 µM)
Pseudomonas sp.
  MIC: 12.5 µg/mL (≈ 62.5 µM)
[2]
  MIC: < 1.56 µg/mL
Salmonella pullorum Ill.
  MIC: < 1.56 µg/mL
[3]
  MIC: 6.25 µg/mL (≈ 31.2 µM)
Mycoplasma hyosynoviae
  MIC: 50 µg/mL (≈ 250 µM)
[4]
  MIC: 25 µg/mL (≈ 125 µM)
Hemophilus gallinarum
  MIC: 0.78 µg/mL (≈ 3.9 µM)
Hemophilus somnus
  MIC: > 100 µg/mL
[5]
  MIC: < 1.56 µg/mL
Salmonella pullorum 9-25
  MIC: < 1.56 µg/mL
[6]
  MIC: 32 µg/mL (≈ 160 µM)
Hemophilus influenzae
  MIC: 4 µg/mL (≈ 20 µM)
Streptococcus pyogenes [7]
  MIC: 32 µg/mL (≈ 160 µM)
Alkaligenes fecalis
  MIC: 128 µg/mL (≈ 640 µM)
Streptococcus pyogenes [8]; two subcutaneous doses of 83 mg./kg., 1 and 5 hours
  Days Survived: 5.0 days
Streptococcus pyogenes [8]; Streptococcus pyogenes, sc, subcutaneous, 1 and 5 hours post-inoculation
  ED50: 53.7 mg/kg
[9]; [12]
  Mortality: 1/8
  Avg. Wt. Gain: 36.6 lbs.
[9]; [13]
  Mortality: 1/8
  Avg. Wt. Gain: 55.3 lbs.
[9]; 200 and 400 mg. per day groups, end of 56 days
  surviving treated calves with P. multocida or hemolytica in nasal swabs: 11 of the 14 surviving treated calves
[9]; of 14 surviving treated calves, end of 56 days
  surviving calves with E. coli in rectal swabs: 12 of the surviving calves
[10]; 200 mg./day/calf
  Mortality: about 12%
  surviving treated calves with E. coli in rectal swabs: all of the surviving treated calves
  survivors with P. multocida organisms in nasal secretions: 6 of the survivors
[10]; 200 mg./day/calf (about 3-5 mg./kg./day), 56 days
  Mortality: 1/8
[10]; 200 mg./day/calf (about 3-5 mg./kg./day), 56 days, survivors
  Avg. Wt. Gain: 52.1 lbs.
[11]
  Average Daily Feed Consumption: 2.00 lbs.
  Average Daily Gain: 1.01 lbs.
  Feed/Gain: 1.96
